From patent publication US6716851B2, “Substituted 2-aryl-4-arylaminopyrimidines and analogs as activators or caspases and inducers of apoptosis and the use thereof” (Cytovia, Inc., priority 2000, dated 2004)

Legend:
ZR-75-1 cells = assay: Caspase cascade activation (N-(Ac-DEVD)-N'-ethoxycarbonyl-R110 fluorogenic substrate) in ZR-75-1 cells; type: cell-based, Human; settings: ZR-75-1, 48 h incubation
How it was run: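 EC50 comes from sigmoidal fitting of the net RFU ratio over DMSO control, read at ex 485/em 530 nm 3 h after adding 14 μM Ac-DEVD-R110 in lysolecithin/DTT/PIPES pH 7.2 buffer. Compound (0.016-10 μM final) was applied to cells for 48 h at 37 °C beforehand.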

[1] = tested on: SW620 (colorectal cancer cell line); assay: Cell proliferation assay (GI50) in SW620 cells; type: cell-based; settings: Homo sapiens, SW-620; SW620, 48 h
Method: [Worded in the source for another cell line; used here, by the source, with some conditions changed.] (§1) T-47D cells were grown and harvested as in Example 221. An aliquot of 90 μl of cells (2.2×10^4 cells/ml) was added to a well of a 96-well microtiter plate containing 10 μl of a 10% DMSO in RPMI-1640 media solution containing 1 nM to 100 μM of 4-(3-methoxyanilino)-2-(2-pyridinyl)-6-(trifluoromethyl)pyrimidine (0.1 nM to 10 μM final). An aliquot of 90 μl of cells was added to a well of a 96-well microtiter plate containing 10 μl of a 10% DMSO in RPMI-1640 media solution without compound as the control sample for maximal cell proliferation (AMax). The samples were mixed by agitation and then incubated at 37° C. for 48 h in a 5% CO2-95% humidity incubator. After incubation, the samples were removed from the incubator and 20 μl of CellTiter 96 AQueous One Solution Cell Proliferation^TM reagent (Promega) was added. The samples were mixed by agitation and incubated at 37° C. for 2-4 h in a 5% CO2-95% humidity incubator. Using an absorbance plate reader (Model 1420 Wallac Instruments), an initial reading (T=0) was made approximately 1-2 min after addition of the solution, employing absorbance at 490 nm. This determines the possible background absorbance of the test compounds. No absorbance for 4-(3-methoxyanilino)-2-(2-pyridinyl)-6-(trifluoromethyl)pyrimidine was found at 490 nm. After the 2-4 h incubation, the samples were read for absorbance as above (ATest). […]

MCF-7 cells = assay: Cell proliferation assay (GI50) in MCF-7 cells; type: cell-based; settings: Homo sapiens, MCF7; MCF-7, 48 h
Method: [Worded in the source for another cell line; this cell line is reported under the same test.] as §1

Question: `COc1cccc(Nc2cc(C(F)(F)F)nc(-c3ccccn3)n2)c1` [Compound A, 4-(3-methoxyanilino)-2-(2-pyridinyl)-6-(trifluoromethyl)pyrimidine] was tested. Which EC50 (ZR-75-1 cells; Homo sapiens, caspase activation potency) did it give?
Answer: 140 nM

Question: And the “ZR Ratio 48 hr” value (ZR-75-1 cells; caspase activity: ratio of net RFU of test compound to control)?
Answer: 3.6

Question: What about the GI50 [1] of the same molecule?
Answer: > 10000 nM

Question: What about the GI50 (MCF-7 cells) of the same molecule?
Answer: 100 nM
